Drawing on PMC4870834 (Biochemistry, 2015), this text covers Kd for four compounds.

What all share (experiment): intrinsic fluorescence titration
Holding throughout (type): binding

In experiment [1] the target is SULT1A1 (Homo sapiens, UniProt P50225, I89A).
Experiment [2] deals with SULT1A1 (Homo sapiens, UniProt P50225, F255A).
The target of experiment [3] is SULT1A1 (Homo sapiens, UniProt P50225).
The target in experiment [4] is SULT1A1 (Homo sapiens, UniProt P50225, D249S).
Experiment [5] deals with SULT1A1 (Homo sapiens, UniProt P50225, V243G).
SULT1A1 (Homo sapiens, UniProt P50225, V243G), sequence (P50225 whole entry V243G): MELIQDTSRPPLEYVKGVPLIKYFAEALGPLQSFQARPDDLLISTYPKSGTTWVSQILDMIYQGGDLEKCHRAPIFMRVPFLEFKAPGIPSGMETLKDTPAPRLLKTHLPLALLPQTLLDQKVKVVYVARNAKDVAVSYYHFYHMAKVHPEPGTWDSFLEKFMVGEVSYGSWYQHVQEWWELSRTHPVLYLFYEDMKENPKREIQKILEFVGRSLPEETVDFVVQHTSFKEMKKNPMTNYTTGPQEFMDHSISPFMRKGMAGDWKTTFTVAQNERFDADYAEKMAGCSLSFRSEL

SULT1A1 (Homo sapiens, UniProt P50225), sequence (P50225 whole entry): as the sequence (P50225 whole entry V243G) above, with G243V counted along it
SULT1A1 (Homo sapiens, UniProt P50225, D249S), sequence (P50225 whole entry D249S): as the sequence (P50225 whole entry V243G) above, with G243V, D249S counted along it
SULT1A1 (Homo sapiens, UniProt P50225, I89A), sequence (P50225 whole entry I89A): as the sequence (P50225 whole entry V243G) above, with I89A, G243V counted along it
SULT1A1 (Homo sapiens, UniProt P50225, F255A), sequence (P50225 whole entry F255A): as the sequence (P50225 whole entry V243G) above, with G243V, F255A counted along it

With `Oc1ccc2ccccc2c1` [2-Nap], the Kd on SULT1A1 [1] stood at 1800 nM; on SULT1A1 [2], 2000 nM; on SULT1A1 [3], 1500 nM; at SULT1A1 [4], 2200 nM; on SULT1A1 [5], 2200 nM.
On to `Nc1ncnc2c1ncn2[C@@H]1O[C@H](COP(=O)(O)O)[C@@H](OP(=O)(O)O)[C@H]1O` [PAP], for which the dissociation constant Kd on SULT1A1 [1] came to 310 nM; at SULT1A1 [2], 270 nM; at SULT1A1 [3], 270 nM; at SULT1A1 [4] it was 300 nM; at SULT1A1 [5] it was 280 nM.
Regarding `C[C@]12CC[C@@H]3c4ccc(O)cc4CC[C@H]3[C@@H]1CC[C@@H]2O` [E2], the equilibrium dissociation constant (Kd) at SULT1A1 [1] was 1500 nM; at SULT1A1 [2] it was 900 nM; on SULT1A1 [4], 900 nM; on SULT1A1 [5] it was 900 nM.
`C[C@]12CC[C@@H]3c4ccc(O)cc4C[C@@H](CCCCCCCCC[S+]([O-])CCCC(F)(F)C(F)(F)F)[C@H]3[C@@H]1CC[C@@H]2O` (stereo partly shown) [fulvestrant]: the dissociation constant Kd was found to be 1100 nM at SULT1A1 [1]; 1500 nM on SULT1A1 [2]; 1700 nM at SULT1A1 [3]; 1600 nM at SULT1A1 [4]; 1300 nM on SULT1A1 [5].

What is called Kd is the constant that tells how readily two partners part at equilibrium. Lower therefore signals higher affinity.
